Measured values reported in PubChem BioAssay AID789 (SRMLSC, 2007).
Calls of active or inactive are those of the source. How the calls were made is not given here.

Assays:
[1] = growth inhibition of apl2Δ yeast, dose response, selectivity assay for post-Golgi transport modulator project, S. cerevisiae, secondary screen, background strain comparison (AID 789); conditions: S. cerevisiae background (wild-type parent) strain growth inhibition
[2] = system: S. cerevisiae apl2Δ mutant growth inhibition; assay: as above

Row | Compound | IC50 [1] [µM] | IC50 [2]
1 | O=C(Nc1cccc(Cl)c1)N1CCN(C/C=C/c2ccccc2)CC1 | > 10 | > 10 µM (inactive)
2 | Cc1ccc(S(=O)(=O)c2c(C)nn(C(C)(C)C)c2OC(=O)c2ccc(Br)o2)cc1 | > 10 | > 10 µM (inactive)
3 | CCOC(=O)C(C)Oc1ccc2c(C)cc(=O)oc2c1C(C)=O (stereo not given) | > 10 | > 10 µM (inactive)
4 | Cc1cccc(-n2c(N)c(C(=O)NCCN3CCOCC3)c3nc4ccccc4nc32)c1 | > 10 | > 10 µM (inactive)
5 | O=[N+]([O-])c1cc(C(F)(F)F)ccc1N/N=C/c1cc2ccccc2nc1Cl | > 10 | > 10 µM (inactive)
6 | Cc1ccc(/C=N/n2cnc3sc(-c4ccccc4)cc3c2=O)o1 | > 10 | > 10 µM (inactive)
7 | Cc1cccnc1Nc1nc(-c2ccccn2)cs1 | > 10 | > 10 µM (inactive)
8 | CCN(CC)c1ccc(-c2nc3cnccc3n2C)cc1 | > 10 | > 10 µM (inactive)
9 | CCOC(=O)COc1ccccc1C1Nc2ccccc2C(=O)N1c1cccc(Cl)c1 (stereo not given) | > 10 | > 10 µM (inactive)
10 | O=C(OCn1ncc(Cl)c(Cl)c1=O)c1ccc(C(F)(F)F)cc1 | > 10 | > 10 µM (inactive)
11 | O=C(Nc1cc(C(F)(F)F)ccc1-n1cncn1)c1ccc(-c2ccccc2)cc1 | > 10 | > 10 µM (inactive)
12 | CCc1cc(=O)oc2cc(C)c(CN3CCCC(C)C3)c(O)c12 (stereo not given) | > 10 | > 10 µM (inactive)
13 | O=C(NCc1ccc2c(c1)OCO2)c1ccc(CS(=O)(=O)c2cccc(C(F)(F)F)c2)o1 | > 10 | > 10 µM (inactive)
14 | CN1CCN(CCCNC(=O)Cn2nc(-c3ccccc3)ccc2=O)CC1 | > 10 | > 10 µM (inactive)
15 | Cc1cc(NCCCN2CCOCC2)n2ncc(-c3ccc(Cl)cc3)c2n1 | > 10 | > 10 µM (inactive)
16 | Cc1ccc(CSc2nc3ccccc3cc2C=O)cc1 | 2.1 | 7.24 µM (inactive)
17 | N#Cc1nc(COc2ccc(-c3ccccc3)cc2)oc1NCCCN1CCOCC1 | 15.4 | 17.2 µM (inactive)
18 | CCC(OC(=O)C(NC(=O)c1ccccc1)c1ccccc1)C(=O)Nc1cc(C)on1 (stereo not given) | > 10 | > 10 µM (inactive)
19 | O=c1cccc2n1CC1CC2CN(S(=O)(=O)c2ccccc2)C1 (stereo not given) | > 10 | > 10 µM (inactive)
20 | Cc1cccc(OCC(=O)O/N=C(\N)Cc2ccc(Cl)cc2)c1 | 10.4 | > 10 µM (inactive)
21 | Cc1cc(=O)oc2c(CN3CCCCC3)c(O)c(Cl)cc12 | > 10 | > 10 µM (inactive)
22 | Cc1ccc(-n2cc3c(-c4cccc(Br)c4)nnc(C)c3n2)cc1 | 13.5 | 15.4 µM (inactive)
23 | N#CC1=C2SCC(O)(c3ccccc3)N2C(=O)CC1c1ccccc1 (stereo not given) | > 10 | > 10 µM (inactive)
24 | Cn1c2ccc(Cl)cc2c2nc3ccccc3nc21 | > 10 | > 10 µM (inactive)
25 | Cc1ccc(C(=O)c2c(NC(=O)c3ccncc3)sc3c2CCCC3)cc1 | > 10 | > 10 µM (inactive)
26 | CC1CCCCC1NC(=O)CSc1nnnn1-c1ccccc1 (stereo not given) | > 10 | > 10 µM (inactive)
27 | Cc1ccc(S(=O)(=O)NC(CC(C)C)C(=O)Oc2ccc3c4c(c(=O)oc3c2)CCC4)cc1 (stereo not given) | > 10 | > 10 µM (inactive)

Row | Compound | IC50 [1] [µM] | IC50 [2]
28 | O=C1CN(C(=O)CSc2nnc(-c3ccccc3)n2Cc2ccc3c(c2)OCO3)c2ccccc2N1 | > 10 | > 10 µM (inactive)
29 | O=C(C1CCN(S(=O)(=O)c2cccs2)CC1)N1CCCCCC1 | > 10 | > 10 µM (inactive)
30 | Cc1ccc(-c2csc3nnc(SCC(=O)Nc4cccc(C)n4)n23)cc1 | > 10 | > 10 µM (inactive)
31 | O=C(COc1ccc(Cl)cc1)Nc1ccc(N2CCN(C(=O)c3ccco3)CC2)cc1 | > 10 | > 10 µM (inactive)
32 | Cc1ccc(S(=O)(=O)N2CCN(C3CCN(Cc4ccccc4)CC3)CC2)cc1 | > 10 | > 10 µM (inactive)
33 | Cc1cc(=O)[nH]c(SCC(=O)c2ccc(C)c(C)c2)n1 | 2.31 | 6.63 µM (inactive)
34 | CCOCCCNC(=O)C1CCN(C(=O)N(C)C)CC1 | > 10 | > 10 µM (inactive)
35 | Fc1ccc(Cn2nnc(-c3ccc(CN4CCOCC4)cc3)n2)cc1 | > 10 | > 10 µM (inactive)
36 | CCCn1c(SCc2cc(=O)oc3ccc4ccccc4c23)n[nH]c1=O | > 10 | > 10 µM (inactive)
37 | Clc1ccc(Cn2nnc(-c3ccc(CN4CCOCC4)cc3)n2)cc1 | > 10 | 18.9 µM
38 | O=C(NC1CCN(Cc2ccccc2)CC1)C1COc2ccccc2O1 (stereo not given) | > 10 | > 10 µM (inactive)
39 | COc1ccc(N2CCN(C(=O)CCNS(=O)(=O)c3ccc(Br)s3)CC2)cc1 | > 10 | > 10 µM (inactive)
40 | O=C(NCc1ccc2c(c1)OCO2)C1CCCN1C(=O)Nc1ccccc1 (stereo not given) | > 10 | > 10 µM (inactive)
41 | COc1ccc(Cl)cc1NC(=O)C(C)N1CCN(C/C=C/c2ccccc2)CC1 (stereo not given) | 15 | 20.4 µM (inactive)
42 | CCOc1ccc(-c2[nH]ncc2Oc2ccccc2OCC)c(O)c1 | 16 | 13.4 µM
43 | O=C(Cn1ncc2c3ccccc3n(Cc3ccccc3F)c2c1=O)N1CCC2(CC1)OCCO2 | > 10 | > 10 µM (inactive)
44 | O=c1c2c3c(sc2ncn1/N=C/c1ccc([N+](=O)[O-])o1)CCCC3 | 1.59 | 2.1 µM (inactive)
45 | Cc1cc(Cl)cc(C)c1OCCCCN1CCOCC1 | > 10 | > 10 µM (inactive)
46 | O=C1NC2(Nc3ccccc31)C(=O)Nc1ccccc12 (stereo not given) | > 10 | > 10 µM (inactive)
47 | COc1cccc(C(=O)N2CCN(C3CCC(c4ccccc4)CC3)CC2)c1OC (stereo not given) | 23.9 | 14.6 µM
48 | Cc1cc(C)n2nc(C(=O)NCc3ccccc3)cc2n1 | > 10 | > 10 µM (inactive)
49 | Cc1ccn2cc(-c3nonc3C)cc2c1 | > 10 | > 10 µM (inactive)
50 | CCOC(=O)C1=C(CSc2nc(-c3ccccc3)ccc2C#N)OC(N)=C(C#N)C1c1cccnc1 (stereo not given) | > 10 | > 10 µM (inactive)
51 | O=C(CCl)c1ccc(Cc2ncc(C(F)(F)F)cc2Cl)s1 | 8.68 | > 10 µM (inactive)
52 | COc1ccccc1N1CCN(Cc2ccccc2F)CC1 | > 10 | > 10 µM (inactive)
53 | N#CC1=C(N)C(C#N)(C#N)C(c2cccnc2)C2CC(c3ccccc3)CC=C12 (stereo not given) | 2.97 | 4.06 µM (inactive)
54 | COc1ccc(C2=NC(C(F)(F)F)(C(F)(F)F)c3c(n(C)c(=O)n(C)c3=O)N2)cc1 | > 10 | > 10 µM (inactive)

Row | Compound | IC50 [1] [µM] | IC50 [2]
55 | O=C(OCn1ncc(Br)c(Br)c1=O)c1ccc(F)cc1 | 5.38 | > 10 µM (inactive)
56 | O=C(C1COc2ccccc2O1)N1CCN(Cc2ccc3c(c2)OCO3)CC1 (stereo not given) | > 10 | > 10 µM (inactive)
57 | CCN(CC)c1ccc(CN2CC=C(c3ccc(F)cc3)CC2)cc1 | 25.8 | 17.3 µM
58 | O=C(Nc1nnc(-c2ccc3c(c2)CCCC3)o1)c1ccc(Cl)cc1Cl | 3.46 | > 10 µM (inactive)
59 | CCSc1nnc(NC(=O)NCC(F)(F)F)s1 | > 10 | > 10 µM (inactive)
60 | Cc1ccc2nc(C)cc(OCC(=O)O)c2c1 | > 10 | > 10 µM (inactive)
61 | CCC(C)c1ccc(OCCCCN2CCOCC2)cc1 (stereo not given) | > 10 | 24 µM
62 | COc1ccc(-c2cc(N)n(S(=O)(=O)c3c(F)c(F)c(F)c(F)c3F)n2)cc1OC | 1.08 | 9.68 µM (inactive)
63 | C=C(C)C1CC=C(CN2CC(C)OC(C)C2)CC1 (stereo not given) | > 10 | > 10 µM (inactive)
64 | CCCOc1ccccc1N/C(=N/c1nc(C)cc(C)n1)NC(=O)COc1ccc(OC)cc1 | > 10 | > 10 µM (inactive)
65 | CCN(CC)CCn1nc(C)nc1-c1ccccc1O | > 10 | > 10 µM (inactive)
66 | CCOc1ccc(NC(=O)C/C(N)=N/O)cc1 | > 10 | > 10 µM (inactive)
67 | O=C(CCC(=O)OCC(=O)c1ccc(F)cc1)NC1CCCCC1 | > 10 | > 10 µM (inactive)
68 | O=C(OCn1nnc2ccccc2c1=O)c1cn(-c2ccccc2)nc1-c1cccnc1 | > 10 | > 10 µM (inactive)
69 | Cn1nnc2cc(C(=O)Nc3cccnc3)ccc21 | > 10 | > 10 µM (inactive)
70 | CCCCS(=O)(=O)/C=C\C=C/S(=O)(=O)CCCC | 13.9 | 19.8 µM (inactive)
71 | CC1CCCCN1CCNC(=O)Cn1nc(-c2ccccc2)ccc1=O (stereo not given) | > 10 | > 10 µM (inactive)
72 | CN1/C(=C/C2CC(=O)NC2=O)C(C)(C)c2ccccc21 (stereo not given) | > 10 | > 10 µM (inactive)
73 | Cc1ccc(C)c(NS(=O)(=O)c2cc(C(=O)N3CCc4ccccc4C3)ccc2Cl)c1 | 6.88 | 5.74 µM
74 | CCC(=O)c1ccc(N2CCN(C(=O)c3ccc(Br)cc3)CC2)c(F)c1 | > 10 | > 10 µM (inactive)
75 | c1ccc(-c2ccc(-c3cnc4n3CCCCC4)cc2)cc1 | > 10 | > 10 µM (inactive)
76 | O=C(Cn1nnc(-c2ccc(S(=O)(=O)N3CCCC3)cc2)n1)NCC1CCCO1 (stereo not given) | > 10 | > 10 µM (inactive)
77 | O=[N+]([O-])c1ccc(N2CCN(S(=O)(=O)c3ccc(Cl)cc3)CC2)cc1NCc1cccnc1 | > 10 | > 10 µM (inactive)
78 | Cc1cccc(N2CCN(CC(=O)Nc3nccs3)CC2)c1C | > 10 | > 10 µM (inactive)
79 | CCOC(=O)c1c(-n2c(C)cc(C=C3C(=O)NC(=S)NC3=O)c2C)sc2c1CCCC2 | 11.5 | > 10 µM (inactive)
80 | CC(C)(C)n1nnnc1CN(Cc1cccnc1)Cc1ccccc1Cl | > 10 | > 10 µM (inactive)
